Test results reported in ChEMBL document CHEMBL5316268 (J Med Chem, 2023).
The source made the active and inactive calls. The rule behind the calls is not given here.

Key:
5'-nucleotidase [1] = biological target: T1, 5'-nucleotidase (Homo sapiens, UniProt P21589); assay: Inhibition of CD73 in human plasma incubated for 15 mins in presence of 15N5-AMP by LC/MS analysis; assay type: cell-free
[2] = Clearance in CD rat at 1 mg/kg, iv measured for 24 hrs by LC-MS/MS analysis; assay type: ADME, organism-based; conditions: in vivo
5'-nucleotidase [3] = biological target: T1, 5'-nucleotidase; assay: Inhibition of recombinant human CD73
[4] = Selectivity ratio of IC50 for CD73 in human plasma to IC50 for C-terminal 6His-tagged recombinant human CD73 (27 to 547 residues) expressed in CHO cells; assay type: cell-based
5'-nucleotidase [5] = biological target: T1, 5'-nucleotidase; assay: Inhibition of soluble C-terminal 6His-tagged recombinant human CD73 (27 to 547 residues) expressed in CHO cells incubated for 1 hr by malachite green based spectrophotometer assay; assay type: cell-based
5'-nucleotidase [6] = biological target: T1, 5'-nucleotidase; assay: Inhibition of cell surface anchored CD73 (unknown origin) expressed in human SK-MEL-28 cells incubated for 30 mins by malachite green assay; assay type: cell-based
[7] = Oral bioavailability in CD rat at 50 mg/kg measured for 24 hrs by LC-MS/MS analysis; assay type: ADME, organism-based; conditions: CD, in vivo
EG7 = assay: Antitumor activity against mouse EG7 cells implanted in mouse; assay type: functional, cell-based
5'-nucleotidase [8] = biological target: T2, 5'-nucleotidase (Mus musculus, UniProt Q61503); assay: Inhibition of C-terminal 6His-tagged recombinant mouse CD73 (29 to 549 residues) expressed in CHO cells incubated for 1 hr by malachite green assay; assay type: cell-based
T2 sequence (Q61503 whole entry): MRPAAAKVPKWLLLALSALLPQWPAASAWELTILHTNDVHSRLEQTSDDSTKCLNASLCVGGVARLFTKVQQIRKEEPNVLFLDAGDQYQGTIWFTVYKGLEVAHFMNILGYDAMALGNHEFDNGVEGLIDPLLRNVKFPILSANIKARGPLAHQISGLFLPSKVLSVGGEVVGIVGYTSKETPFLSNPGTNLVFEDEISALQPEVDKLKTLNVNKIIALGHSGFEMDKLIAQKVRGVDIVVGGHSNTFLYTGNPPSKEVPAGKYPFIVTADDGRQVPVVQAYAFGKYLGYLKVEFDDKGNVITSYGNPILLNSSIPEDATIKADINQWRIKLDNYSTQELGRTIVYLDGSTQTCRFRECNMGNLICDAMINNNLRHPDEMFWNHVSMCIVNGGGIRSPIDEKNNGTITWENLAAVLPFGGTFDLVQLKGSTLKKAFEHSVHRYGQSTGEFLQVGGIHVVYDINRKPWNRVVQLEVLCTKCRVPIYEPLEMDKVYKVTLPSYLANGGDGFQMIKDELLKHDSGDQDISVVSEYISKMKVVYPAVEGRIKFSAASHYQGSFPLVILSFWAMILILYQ

T1 sequence (P21589 whole entry): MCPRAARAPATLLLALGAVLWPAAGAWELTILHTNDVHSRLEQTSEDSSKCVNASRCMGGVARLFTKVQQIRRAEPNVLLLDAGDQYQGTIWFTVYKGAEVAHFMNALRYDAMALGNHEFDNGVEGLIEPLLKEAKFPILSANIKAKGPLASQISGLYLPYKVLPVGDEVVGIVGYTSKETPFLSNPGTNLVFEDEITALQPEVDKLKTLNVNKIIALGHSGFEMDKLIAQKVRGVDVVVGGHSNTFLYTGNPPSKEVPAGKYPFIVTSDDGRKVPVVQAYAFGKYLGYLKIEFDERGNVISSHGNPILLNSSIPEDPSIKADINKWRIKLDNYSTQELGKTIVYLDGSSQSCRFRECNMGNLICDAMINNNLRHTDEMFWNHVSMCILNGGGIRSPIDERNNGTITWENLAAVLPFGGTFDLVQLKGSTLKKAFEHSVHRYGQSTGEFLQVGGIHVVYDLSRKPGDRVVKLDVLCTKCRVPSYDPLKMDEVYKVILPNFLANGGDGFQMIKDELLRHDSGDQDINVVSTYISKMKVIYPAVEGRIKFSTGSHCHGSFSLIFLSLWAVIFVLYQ

Which results are given for `C#C[C@@]1(O)[C@@H](COC(Cc2ccccc2)(C(=O)O)C(=O)O)O[C@@H](n2cnc3c(N4CC(O)C4)nc(Cl)nc32)[C@@H]1O`?
IC50 (5'-nucleotidase [1]): 5.4 nM; clearance [2]: 17 mL/min/kg

For `Nc1ncnc2c1ncn2[C@@H]1O[C@H](COP(=O)(O)CP(=O)(O)O)[C@@H](O)[C@H]1O` [PHOSPHOMETHYLPHOSPHONIC ACID ADENOSYL ESTER], which IC50 (5'-nucleotidase [3]) is on record?
Its IC50 is 6090 nM.

For `C#C[C@@]1(O)[C@@H](COC(Cc2ccc(-c3ccccc3C(=O)O)cc2)(C(=O)O)C(=O)O)O[C@@H](n2cnc3c(N)nc(Cl)nc32)[C@@H]1O`, which IC50 (5'-nucleotidase [1]) is on record?
Its IC50 is 2.8 nM.

And the clearance [2]?
Its clearance is 2.9 mL/min/kg.

And the Ratio IC50 [4]?
Its Ratio IC50 is 14.

With `Nc1nc(Cl)nc2c1ncn2[C@@H]1O[C@H](COC(Cc2ccccc2)(C(=O)O)C(=O)O)[C@@H](O)[C@@H]1F` as the compound, how does the IC50 (5'-nucleotidase [3]) read?
The IC50 was 159 nM.

With `C#C[C@@]1(O)[C@@H](COC(Cc2ccc(-c3ccccc3)cc2)(C(=O)O)C(=O)O)O[C@@H](n2cnc3c(N)nc(Cl)nc32)[C@@H]1O` as the compound, how does the IC50 (5'-nucleotidase [1]) read?
The IC50 was 15.6 nM.

And the clearance [2]?
Its clearance is 64 mL/min/kg.

What about the Ratio IC50 [4] of the same compound?
Its Ratio IC50 is 52.

With `C#C[C@@]1(O)[C@@H](COC(Cc2ccccc2)(C(=O)O)C(=O)O)O[C@@H](n2cnc3c(-c4cccs4)nc(Cl)nc32)[C@@H]1O` as the compound, how does the IC50 (5'-nucleotidase [1]) read?
The IC50 was 136 nM.

Which IC50 (5'-nucleotidase [5]) does the source give for `C#C[C@@]1(O)[C@@H](COC(Cc2ccccc2)(C(=O)O)C(=O)O)O[C@@H](n2cnc3c(N(C)C)cc(Cl)nc32)[C@@H]1O` here?
Its IC50 is 2.1 nM.

What about the IC50 (5'-nucleotidase [1]) of the same compound?
The IC50 was 41 nM.

What about the clearance [2] of the same compound?
Its clearance is 5.9 mL/min/kg.

With `C#C[C@@]1(O)[C@@H](COC(Cc2ccccc2)(C(=O)O)C(=O)O)O[C@@H](n2cnc3c(NC(C)C)nc(Cl)nc32)[C@@H]1O` as the compound, how does the IC50 (5'-nucleotidase [1]) read?
Its IC50 is 50 nM.

What about the clearance [2] of the same compound?
The clearance was 1.4 mL/min/kg.

Which results are given for `Nc1nc(Cl)nc2c1ncn2[C@@H]1O[C@H](COC(Cc2ccccc2)(C(=O)O)C(=O)O)[C@@H](O)[C@H]1O`?
IC50 (5'-nucleotidase [6]): 434 nM; clearance [2]: 20.4 mL/min/kg; bioavailability [7]: 1.8%; IC50 (5'-nucleotidase [3]): 100 nM

For `C#C[C@@]1(O)[C@@H](COC(Cc2ccccc2)(C(=O)O)C(=O)O)O[C@@H](n2cnc3c(NCC)nc(Cl)nc32)[C@@H]1O`, which IC50 (5'-nucleotidase [1]) is on record?
Its IC50 is 6.5 nM.

What about the clearance [2] of the same compound?
The clearance was 7.8 mL/min/kg.

For `CC[C@@]1(O)[C@@H](COC(Cc2ccccc2)(C(=O)O)C(=O)O)O[C@@H](n2cnc3c(N)nc(Cl)nc32)[C@@H]1O`, which IC50 (5'-nucleotidase [5]) is on record?
Its IC50 is 200 nM.

For `C[C@@]1(O)[C@@H](COC(Cc2ccccc2)(C(=O)O)C(=O)O)O[C@@H](n2cnc3c(N)nc(Cl)nc32)[C@@H]1O`, which IC50 (5'-nucleotidase [6]) is on record?
The IC50 was 169 nM.

For `C#C[C@@]1(O)[C@@H](COC(Cc2ccccc2)(C(=O)O)C(=O)O)O[C@@H](n2cnc3c(N(C)C)nc(Cl)nc32)[C@@H]1O`, which IC50 (5'-nucleotidase [1]) is on record?
Its IC50 is 16 nM.

What about the clearance [2] of the same compound?
Its clearance is 18 mL/min/kg.

What does the source list for `C#C[C@@]1(O)[C@@H](COC(Cc2ccccc2)(C(=O)O)C(=O)O)O[C@@H](n2cnc3c(NCC4CC4)nc(Cl)nc32)[C@@H]1O`?
IC50 (5'-nucleotidase [1]): 11.5 nM; clearance [2]: 3.7 mL/min/kg

Which IC50 (5'-nucleotidase [1]) does the source give for `C#C[C@@]1(O)[C@@H](COC(Cc2ccccc2)(C(=O)O)C(=O)O)O[C@@H](n2cnc3c(N[C@H](C)c4ccccc4)nc(Cl)nc32)[C@@H]1O` here?
Its IC50 is 917 nM.

What about the clearance [2] of the same compound?
The clearance was 1 mL/min/kg.

What does the source list for `Nc1nc(Cl)nc2c1ncn2[C@@H]1O[C@H](COC(Cc2ccccc2)(C(=O)O)C(=O)O)[C@](O)(C#CC2CC2)[C@H]1O`?
IC50 (5'-nucleotidase [1]): 1.5 nM; clearance [2]: 54 mL/min/kg

Which clearance [2] does the source give for `C#C[C@@]1(O)[C@@H](COC(Cc2ccccc2)(C(=O)O)C(=O)O)O[C@@H](n2cnc3c(N)nc(Cl)nc32)[C@@H]1O` here?
Its clearance is 13 mL/min/kg.

And the Activity (EG7)?
The Activity was “Active”.

What about the IC50 (5'-nucleotidase [8]) of the same compound?
Its IC50 is 7.3 nM.

With `C#C[C@@]1(O)[C@@H](COC(Cc2ccc(-c3ccc[nH]c3=O)cc2)(C(=O)O)C(=O)O)O[C@@H](n2cnc3c(N)nc(Cl)nc32)[C@@H]1O` as the compound, how does the IC50 (5'-nucleotidase [1]) read?
Its IC50 is 0.38 nM.

What about the Ratio IC50 [4] of the same compound?
The Ratio IC50 was 3.8.

Which IC50 (5'-nucleotidase [3]) does the source give for `CN(C(=O)c1ccccc1)c1ccc(CC(OC[C@H]2O[C@@H](n3cnc4c(N)nc(Cl)nc43)[C@@H](F)[C@@H]2O)(C(=O)O)C(=O)O)cc1` here?
Its IC50 is 9 nM.

For `C#C[C@@]1(O)[C@@H](COC(Cc2ccccc2)(C(=O)O)C(=O)O)O[C@@H](n2cnc3c(NC(C)C)cc(Cl)nc32)[C@@H]1O`, which IC50 (5'-nucleotidase [5]) is on record?
The IC50 was 2 nM.

What about the IC50 (5'-nucleotidase [1]) of the same compound?
Its IC50 is 160 nM.

And the clearance [2]?
Its clearance is 0.91 mL/min/kg.

Which IC50 (5'-nucleotidase [1]) does the source give for `CC#C[C@@]1(O)[C@@H](COC(Cc2ccccc2)(C(=O)O)C(=O)O)O[C@@H](n2cnc3c(N)nc(Cl)nc32)[C@@H]1O` here?
The IC50 was 1.6 nM.

And the clearance [2]?
The clearance was 9.9 mL/min/kg.

For `C#C[C@@]1(O)[C@@H](COC(Cc2ccccc2)(C(=O)O)C(=O)O)O[C@@H](n2cnc3c(NC)nc(Cl)nc32)[C@@H]1O`, which IC50 (5'-nucleotidase [1]) is on record?
Its IC50 is 15.5 nM.

And the clearance [2]?
The clearance was 10 mL/min/kg.

Which Ratio IC50 [4] does the source give for `C#C[C@@]1(O)[C@@H](COC(Cc2ccc(N3CCCCC3=O)cc2)(C(=O)O)C(=O)O)O[C@@H](n2cnc3c(N)nc(Cl)nc32)[C@@H]1O` here?
The Ratio IC50 was 1.

Which results are given for `C#C[C@@]1(O)[C@@H](COC(Cc2ccccc2)(C(=O)O)C(=O)O)O[C@@H](n2cnc3c(NCc4ccccc4)nc(Cl)nc32)[C@@H]1O`?
IC50 (5'-nucleotidase [1]): > 100 nM; clearance [2]: 6.3 mL/min/kg

Which results are given for `C#C[C@@]1(O)[C@@H](COC(Cc2ccccc2)(C(=O)O)C(=O)O)O[C@@H](n2cnc3c(N[C@@H](C)c4ccccc4)nc(Cl)nc32)[C@@H]1O`?
IC50 (5'-nucleotidase [1]): 208 nM; clearance [2]: 9.2 mL/min/kg

Which results are given for `C#C[C@@]1(O)[C@@H](COC(Cc2ccccc2)(C(=O)O)C(=O)O)O[C@@H](n2cnc3c(NCCO)nc(Cl)nc32)[C@@H]1O`?
IC50 (5'-nucleotidase [1]): 7.2 nM; clearance [2]: 7.5 mL/min/kg
